PubChem BioAssay (NCI)
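All cell lines were grown in 96-well plates and treated with compound for 48 hours. Here, GI50 denotes the concentration required for 50% inhibition of growth. TGI marks complete inhibition of growth.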

Assays:
Assay in all cases: NCI-60 cell line screen, 48 h
[1] = system: OVCAR-4 ovarian
[2] = system: IGROV1 ovarian
[3] = system: CAKI-1 renal
[4] = system: TK-10 renal
[5] = system: RPMI-8226 leukemia
[6] = system: SF-295 CNS
[7] = system: UACC-257 melanoma
[8] = system: HT29 colon
[9] = system: MCF7 breast
[10] = system: NCI/ADR-RES ovarian

Cc1ccccc1C(=O)c1cc(O)ccc1O
TGI [1]: > 100 µM | TGI [2]: > 100 µM | TGI [3]: > 100 µM | TGI [4]: > 100 µM | TGI [5]: > 100 µM | TGI [6]: > 100 µM | TGI [7]: > 100 µM | TGI [8]: > 100 µM

CC(C)(C)c1cc(C(P(=O)(O)O)P(=O)(O)O)cc(C(C)(C)C)c1O
TGI [1]: > 100 µM | TGI [2]: > 100 µM | TGI [3]: > 100 µM | TGI [4]: > 100 µM | TGI [5]: > 100 µM | TGI [6]: > 100 µM | TGI [7]: > 100 µM | TGI [8]: > 100 µM

CN(C)CCC(/C=C/c1ccccc1)=N\Nc1ccccc1
TGI [1]: 17.1 µM | TGI [2]: 16.5 µM | TGI [4]: 4.61 µM | TGI [5]: 8.52 µM | TGI [6]: 2.21 µM | TGI [7]: 9.76 µM | TGI [8]: 15.4 µM

O=c1c(F)cn(Cc2ccc(C34CC5CC(CC(C5)C3)C4)c(O)c2)c(=O)n1Cc1ccc(C23CC4CC(CC(C4)C2)C3)c(O)c1
GI50 [1]: 14.8 µM | TGI [1]: 30.8 µM | GI50 [9]: 9.83 µM | TGI [9]: 30.6 µM | GI50 [3]: 17.5 µM | TGI [3]: 31.6 µM | GI50 [4]: 15.7 µM | TGI [4]: 30 µM | GI50 [5]: 15.4 µM | TGI [5]: 60.4 µM | GI50 [6]: 16.9 µM | TGI [6]: 32.5 µM | GI50 [7]: 20.7 µM | TGI [7]: 50.7 µM | GI50 [10]: 14.3 µM | TGI [10]: 28.9 µM | GI50 [8]: 13.9 µM | TGI [8]: 29.9 µM

Cc1nc(Nc2ccc(Cl)cc2)sc1C(=O)NNC(=S)NN
TGI [1]: 32.7 µM | TGI [2]: 63 µM | TGI [3]: 44.8 µM | TGI [4]: 45.1 µM | TGI [5]: 79.5 µM | TGI [6]: 34.1 µM | TGI [7]: 27.3 µM

COc1cc(OC)c2c(=O)cc(-c3ccc(OC)c(OC)c3OC)oc2c1
TGI [1]: > 100 µM | TGI [2]: > 100 µM | TGI [3]: > 100 µM | TGI [4]: > 100 µM | TGI [5]: > 100 µM | TGI [6]: > 100 µM | TGI [7]: > 100 µM | TGI [8]: > 100 µM

CN1CCN(c2ccc(Nc3cc(-c4cccc(-n5ccc6cc(C7CC7)cc(F)c6c5=O)c4CO)cn(C)c3=O)nc2)CC1
GI50 [2]: 8.65 µM | TGI [2]: 25.7 µM | GI50 [9]: 3.24 µM | TGI [9]: 18.6 µM | GI50 [3]: 2.66 µM | TGI [3]: 10.8 µM | GI50 [4]: 3.69 µM | TGI [4]: 14.3 µM | GI50 [5]: 3.8 µM | TGI [5]: 19 µM | GI50 [6]: 10.5 µM | TGI [6]: 24.2 µM | GI50 [7]: 2.28 µM | TGI [7]: 5.03 µM | GI50 [10]: 8.03 µM | TGI [10]: 33.4 µM | GI50 [8]: 3 µM | TGI [8]: 13.9 µM

CSc1nc(SC)c2c(C#N)[nH]nc2n1
TGI [1]: > 100 µM | TGI [2]: > 100 µM | TGI [3]: > 100 µM | TGI [4]: > 100 µM | TGI [5]: > 100 µM | TGI [6]: > 100 µM | TGI [7]: > 100 µM | TGI [8]: > 100 µM

COC(=O)C(=Cc1cc(OC)c(OC)c(OC)c1-c1cc2c(cc1C1(C)OCCS1)OCO2)C(=O)OC (centres undefined)
TGI [2]: > 100 µM | TGI [3]: > 100 µM | TGI [4]: > 100 µM | TGI [5]: > 100 µM | TGI [6]: > 100 µM | TGI [7]: > 100 µM | TGI [8]: > 100 µM

O=C(Nc1cccc(Cl)c1)C(=O)C(C(=O)c1ccc2ccccc2c1)C1OC(=O)c2ccccc21 (centres undefined)
TGI [1]: 33 µM | TGI [2]: 96.3 µM | TGI [3]: 67.6 µM | TGI [4]: 77.4 µM | TGI [5]: 44 µM | TGI [7]: 55.5 µM | TGI [8]: 84.5 µM

O=[N+]([O-])c1ccc2occ3c2c1CCC3
TGI [1]: > 100 µM | TGI [2]: > 100 µM | TGI [4]: > 100 µM | TGI [5]: > 100 µM | TGI [6]: > 100 µM | TGI [7]: > 100 µM | TGI [8]: > 100 µM

Cc1cc(N[C@@H]2CCC[C@H](Nc3ccnc4cc(Cl)ccc34)C2)nc(N2CCCCCC2)n1
GI50 [1]: 1.72 µM | TGI [1]: 5.04 µM | GI50 [9]: 1.43 µM | TGI [9]: 3.03 µM | GI50 [4]: 1.73 µM | TGI [4]: 3.52 µM | GI50 [5]: 1.64 µM | TGI [5]: 4.71 µM | GI50 [6]: 1.32 µM | TGI [6]: 2.74 µM | GI50 [7]: 2.35 µM | TGI [7]: 4.19 µM | GI50 [10]: 1.69 µM | TGI [10]: 3.9 µM | GI50 [8]: 1.05 µM | TGI [8]: 2.98 µM

C#CC1/C(=C\C(=O)OC)CCCC1O (centres undefined)
TGI [1]: > 100 µM | TGI [2]: > 100 µM | TGI [3]: > 100 µM | TGI [4]: > 100 µM | TGI [5]: > 100 µM | TGI [6]: > 100 µM | TGI [7]: > 100 µM | TGI [8]: > 100 µM

Cc1cc2c(=O)c3ccccc3[nH]c2c(C(N)=O)c1C
TGI [1]: > 100 µM | TGI [2]: > 100 µM | TGI [3]: > 100 µM | TGI [4]: > 100 µM | TGI [5]: > 100 µM | TGI [6]: > 100 µM | TGI [7]: > 100 µM | TGI [8]: > 100 µM

CCOC(=O)c1ccc(/C(C)=N/NC(N)=S)cc1
TGI [1]: > 100 µM | TGI [2]: > 100 µM | TGI [4]: > 100 µM | TGI [5]: > 100 µM | TGI [6]: > 100 µM

Nc1ncn([C@@H]2O[C@H](CO)[C@@H](O)[C@H]2O)c(=O)n1
GI50 [9]: 1.24 µM | TGI [9]: 18.2 µM | GI50 [3]: 0.275 µM | TGI [3]: 3.25 µM | GI50 [5]: 0.669 µM | TGI [5]: > 100 µM | GI50 [6]: 2.28 µM | TGI [6]: 58.7 µM | GI50 [10]: 1.2 µM | TGI [10]: 10.6 µM

CC(=O)Nc1ccc(-c2csc(Nc3cccc(-c4csc(C)n4)c3)n2)cc1
GI50 [2]: 3.79 µM | TGI [2]: > 30.9 µM | GI50 [9]: 0.68 µM | TGI [9]: > 50 µM | GI50 [3]: 1.61 µM | TGI [3]: 8.75 µM | GI50 [4]: 6.03 µM | TGI [4]: > 50 µM | GI50 [5]: 0.789 µM | GI50 [6]: 0.907 µM | TGI [6]: > 13.2 µM | GI50 [7]: 4.63 µM | TGI [7]: 21.5 µM | GI50 [10]: 0.642 µM | TGI [10]: 6.84 µM | GI50 [8]: 2.38 µM | TGI [8]: > 50 µM

Clc1cc2c(c(CSc3nc4ccccc4n4cccc34)c1)OCOC2
GI50 [2]: 4.26 µM | TGI [2]: > 100 µM | GI50 [9]: 0.501 µM | TGI [9]: > 100 µM | GI50 [3]: > 100 µM | TGI [3]: > 100 µM | GI50 [4]: 3.49 µM | TGI [4]: 60.3 µM | GI50 [5]: > 100 µM | TGI [5]: > 100 µM | GI50 [6]: 11.7 µM | TGI [6]: 39.9 µM | GI50 [7]: > 100 µM | TGI [7]: > 100 µM | GI50 [10]: 61 µM | TGI [10]: > 100 µM | GI50 [8]: > 100 µM | TGI [8]: > 100 µM

COc1c(O)c2c(=O)cc3c4c5c(cc(=O)c6c(O)c(OC)c(CC(C)O)c(c(c1CC(C)O)c24)c65)OCO3 (centres undefined)
TGI [1]: 2.74 µM | TGI [2]: 4.63 µM | TGI [3]: 24.3 µM | TGI [4]: 8.12 µM | TGI [5]: 12 µM | TGI [6]: 6.09 µM | TGI [7]: 2.78 µM | TGI [8]: 8.58 µM

CC(C)C1=Cc2ccc3c(c2C(=O)C1=O)CCCC3(C)C
TGI [1]: 3.48 µM | TGI [2]: 12.9 µM | TGI [3]: 6.69 µM | TGI [4]: 11.2 µM | TGI [5]: 5.17 µM | TGI [6]: 31 µM | TGI [7]: 8.64 µM | TGI [8]: 46.2 µM

COC(=O)C1CCCC2(C1)OCCO2 (centres undefined)
TGI [1]: > 100 µM | TGI [2]: > 100 µM | TGI [3]: > 100 µM | TGI [4]: > 100 µM | TGI [5]: > 100 µM | TGI [6]: > 100 µM | TGI [7]: > 100 µM | TGI [8]: > 100 µM
